# pIC50: −log10 of the molar value. The source made the active and inactive calls. The calls are words filed in the database; no cut-off is given here.
# How the values were obtained:
# Staphylococcus aureus [1] = experiment: Antibacterial activity against Staphylococcus aureus ATCC 29213 assessed as inhibition of bacterial growth by CLSI based continuous dilution method; format: functional
# Staphylococcus aureus [2] = experiment: Antibacterial activity against methicillin-resistant Staphylococcus aureus assessed as inhibition of bacterial growth by CLSI based continuous dilution method; format: functional
# Enterococcus faecalis = experiment: Antibacterial activity against Enterococcus faecalis assessed as inhibition of bacterial growth by CLSI based continuous dilution method; format: functional
# Staphylococcus aureus [3] = experiment: Antibacterial activity against Staphylococcus aureus assessed as inhibition of bacterial growth by CLSI based continuous dilution method; format: functional
# Staphylococcus aureus [4] = experiment: Antibacterial activity against Staphylococcus aureus ATCC 25923 assessed as inhibition of bacterial growth by CLSI based continuous dilution method; format: functional
# Klebsiella pneumoniae = experiment: Antibacterial activity against Klebsiella pneumoniae assessed as inhibition of bacterial growth by CLSI based continuous dilution method; format: functional
# Escherichia coli [5] = experiment: Antibacterial activity against Escherichia coli assessed as inhibition of bacterial growth by CLSI based continuous dilution method; format: functional
# Escherichia coli [6] = experiment: Antibacterial activity against Escherichia coli ATCC 25922 assessed as inhibition of bacterial growth by CLSI based continuous dilution method; format: functional
# Pseudomonas aeruginosa [7] = experiment: Antibacterial activity against Pseudomonas aeruginosa assessed as inhibition of bacterial growth by CLSI based continuous dilution method; format: functional
# Pseudomonas aeruginosa [8] = experiment: Antibacterial activity against Pseudomonas aeruginosa ATCC 27853 assessed as inhibition of bacterial growth by CLSI based continuous dilution method; format: functional
# Acinetobacter baumannii = experiment: Antibacterial activity against Acinetobacter baumannii assessed as inhibition of bacterial growth by CLSI based continuous dilution method; format: functional
# Pseudomonas aeruginosa [9] = experiment: Potency index, ratio of Berberine MIC to test compound MIC for antibacterial activity against Pseudomonas aeruginosa assessed as inhibition of bacterial growth by CLSI based continuous dilution method; format: functional
# Pseudomonas aeruginosa [10] = experiment: Potency index, ratio of Metronidazole MIC to test compound MIC for antibacterial activity against Pseudomonas aeruginosa assessed as inhibition of bacterial growth by CLSI based continuous dilution method; format: functional
# Pseudomonas aeruginosa [11] = experiment: Potency index, ratio of norfloxacin MIC to test compound MIC for antibacterial activity against Pseudomonas aeruginosa assessed as inhibition of bacterial growth by CLSI based continuous dilution method; format: functional
# Aspergillus fumigatus = experiment: Antifungal activity against Aspergillus fumigatus assessed as inhibition of fungal growth by CLSI based continuous dilution method; format: functional, organism-based
# [12] = Cytotoxicity against human HepG2 cells assessed as cell viability at 1 times MIC relative to control; format: toxicity, cell-based; conditions: read-out: Activity
# [13] = Cytotoxicity against human HepG2 cells assessed as reduction in cell viability; format: toxicity, cell-based
# Pseudomonas aeruginosa [14] = experiment: Antibiofilm activity against Pseudomonas aeruginosa assessed as reduction in biofilm viability at 8 times MIC by crystal violet staining based assay relative to control; format: functional
# Pseudomonas aeruginosa [15] = experiment: Antibiofilm activity against Pseudomonas aeruginosa assessed as reduction in biofilm viability at 0.5 to 8 times MIC by crystal violet staining based assay; format: functional, organism-based; conditions: DDE = dose-dependent effect
# Pseudomonas aeruginosa [16] = experiment: Induction of […] membrane potential depolarization in Pseudomonas aeruginosa assessed as fold increase in fluorescence intensity at 8 times MIC by DiSC35 dye based fluorescence assay; format: functional
# Cell membrane [17] = experiment: Induction of outer membrane permeabilization in Pseudomonas aeruginosa assessed as increase in NPN uptake by measuring increase in fluorescence intensity at 0.5 to 8 times MIC by NPN-dye based fluorescence analysis; conditions: DDE = dose-dependent effect
# Cell membrane [18] = experiment: Induction of inner membrane permeabilization in Pseudomonas aeruginosa assessed as increase in PI uptake by measuring increase in fluorescence intensity at 0.5 to 8 times MIC by propidium iodide staining based fluorescence analysis; conditions: DDE = dose-dependent effect
# Cell membrane [19] = experiment: Induction of cell membrane permeabilization in Pseudomonas aeruginosa assessed as increase in number of cells with damaged membranes by measuring increase in red fluorescence at 1 times MIC measured for 10 mins by PI staining based fluorescence analysis
# Cell membrane [20] = experiment: Disruption of membrane integrity in Pseudomonas aeruginosa assessed as reduction in intact bacterial cells by measuring reduction in fluorescence intensity at 0.5 to 8 times MIC by calcein-AM dye based assay
# Cell membrane [21] = experiment: Disruption of membrane integrity in Pseudomonas aeruginosa assessed as increase in protein leakage by measuring reduction in fluorescence intensity at 0.5 to 8 times MIC incubated for 6 hrs by bradford assay
# Cell membrane [22] = experiment: Disruption of membrane integrity in Pseudomonas aeruginosa assessed as increase in nucleic acid leakage by measuring fold reduction in optical density at 8 times MIC by absorption spectrometry analysis
smiles,measurement,setting,value
COc1cc(/C=N/OCc2ccccc2)c2c(c1OCC(O)Cn1c([N+](=O)[O-])cnc1C)CN1CCc3cc4c(cc3C1C2)OCO4 (stereo unspecified),MIC,Staphylococcus aureus [1],49 µM
same,MIC,Staphylococcus aureus [2],49 µM
same,MIC,Enterococcus faecalis,49 µM
same,MIC,Staphylococcus aureus [3],49 µM
same,MIC,Staphylococcus aureus [4],24 µM
same,MIC,Klebsiella pneumoniae,24 µM
same,MIC,Escherichia coli [5],24 µM
same,MIC,Escherichia coli [6],99 µM
same,MIC,Pseudomonas aeruginosa [7],24 µM
same,MIC,Pseudomonas aeruginosa [8],199 µM
same,MIC,Acinetobacter baumannii,24 µM
same,Ratio,Pseudomonas aeruginosa [9],63
same,Ratio,Pseudomonas aeruginosa [10],62
same,Ratio,Pseudomonas aeruginosa [11],2
same,Activity,Aspergillus fumigatus,Active
same,viability at 1 times MIC,[12],> 80%
same,pIC50,[13],< 4.30
same,Activity,Pseudomonas aeruginosa [14],46.4%
same,Activity,Pseudomonas aeruginosa [15],Dde
same,fold change (FC),Pseudomonas aeruginosa [16],4
same,Activity,Cell membrane [17],Dde
same,Activity,Cell membrane [18],Dde
same,Activity,Cell membrane [19],Active
same,Activity,Cell membrane [20],Active
same,Activity,Cell membrane [21],Active
same,fold change (FC),Cell membrane [22],0.1
